This note sets out measurements from patent US8975398B2, “NAMPT inhibitors” (AbbVie Inc., priority 2012, dated 2015).

One assay has as its target NAMPT (Homo sapiens, UniProt P43490). As to the kind of experiment: Time-Resolved Fluorescence Resonance Energy Transfer (TR-FRET) Binding Assay of NAMPT with PRPP. To be noted: 2 nM NAMPT, 2 nM probe, 200 uM PRPP and 2.5 mM ATP, equilibrated 16 hours. The procedure, abridged: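 Binding measured by TR-FRET after a 16-hour equilibration meant to permit enzymatic compound modification. Substrates present at 200 uM PRPP and 2.5 mM ATP, with 2 nM enzyme, 2 nM probe, 1 nM Tb-anti-His antibody and 2% DMSO final.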

The target of assay [1] is NAMPT (human, recombinant, C-terminally His-tagged) (Homo sapiens, UniProt P43490). Put plainly: Time-Resolved Fluorescence Resonance Energy Transfer (TR-FRET) Binding Assay of NAMPT. To be noted: 6.8 nM NAMPT, 200 nM probe, equilibrated 3 hours, absence of substrates. The procedure, abridged: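 Probe displacement measured by TR-FRET (Ex 337 nm; 520/495 nm ratio) after 3 h room-temperature equilibration of compound with 6.8 nM His-tagged human NAMPT, 1 nM Tb-anti-His antibody and 200 nM Oregon Green 488 nicotinamide-site probe, pH 7.5 HEPES buffer, 2% DMSO. Control-normalized data fit four-parameter logistic for IC50.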
Sequence of NAMPT (human, recombinant, C-terminally His-tagged) (P43490 whole entry): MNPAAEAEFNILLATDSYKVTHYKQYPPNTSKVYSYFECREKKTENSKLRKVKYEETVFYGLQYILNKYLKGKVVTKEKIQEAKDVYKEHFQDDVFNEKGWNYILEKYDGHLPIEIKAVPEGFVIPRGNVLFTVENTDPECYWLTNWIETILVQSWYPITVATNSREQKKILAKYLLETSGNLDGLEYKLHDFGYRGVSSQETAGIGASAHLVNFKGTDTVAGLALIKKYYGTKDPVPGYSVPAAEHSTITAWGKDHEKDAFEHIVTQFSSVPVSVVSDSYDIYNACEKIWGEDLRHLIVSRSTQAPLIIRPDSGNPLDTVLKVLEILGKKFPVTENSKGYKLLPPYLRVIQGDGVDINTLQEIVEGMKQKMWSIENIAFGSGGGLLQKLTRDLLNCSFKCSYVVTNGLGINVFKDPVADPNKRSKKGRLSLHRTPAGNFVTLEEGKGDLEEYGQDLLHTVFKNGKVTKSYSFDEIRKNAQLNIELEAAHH
For orientation: TR-FRET usually uses a lanthanide donor and a delayed reading to cut background.

Sequence of NAMPT (P43490 whole entry): as above

On to `CCC(C)(C)C(=O)N1CCC(Oc2ccc(NC(=O)C3CN(c4cccnn4)C3)cc2)CC1` [Example 248, N-(4-{[1-(2,2-dimethylbutanoyl)piperidin-4-yl]oxy}phenyl)-1-(pyridazin-3-yl)azetidine-3-carboxamide], for which the IC50 at NAMPT is 0.817 nM; in assay [1], 82.6 nM.

Take `O=C(Nc1ccc(OC2CCN(C(=O)c3cccs3)CC2)cc1)C1CN(c2cccnn2)C1` [Example 249, 1-(pyridazin-3-yl)-N-(4-{[1-(thiophen-2-ylcarbonyl)piperidin-4-yl]oxy}phenyl)azetidine-3-carboxamide]: the 50% inhibitory concentration (IC50) stood at 0.6 nM on NAMPT and 59.9 nM in assay [1].

In the case of `O=C(Nc1ccc(OC2CCN(C(=O)c3cccc(Cl)c3)CC2)cc1)C1CN(c2cccnn2)C1` [Example 250, N-(4-{[1-(3-chlorobenzoyl)piperidin-4-yl]oxy}phenyl)-1-(pyridazin-3-yl)azetidine-3-carboxamide], the IC50 on NAMPT turned out to be 0.641 nM; in assay [1], 107 nM.

Consider `O=C(Nc1ccc(OC2CCN(C(=O)C3CC3)CC2)cc1)C1CN(c2cccnn2)C1` [Example 251, N-(4-{[1-(cyclopropylcarbonyl)piperidin-4-yl]oxy}phenyl)-1-(pyridazin-3-yl)azetidine-3-carboxamide], for which the IC50 at NAMPT turned out to be 0.88 nM; in assay [1], 230 nM.

Take `O=C(Nc1ccc(OC2CCN(C(=O)CC(F)(F)F)CC2)cc1)C1CN(c2cccnn2)C1` [Example 252, 1-(pyridazin-3-yl)-N-(4-{[1-(3,3,3-trifluoropropanoyl)piperidin-4-yl]oxy}phenyl)azetidine-3-carboxamide]: the IC50 on NAMPT was 1.1 nM; in assay [1] it was 238 nM.

For `CC(C)C(=O)N1CCC(Oc2ccc(NC(=O)C3CN(c4cccnn4)C3)cc2)CC1` [Example 253, N-(4-{[1-(2-methylpropanoyl)piperidin-4-yl]oxy}phenyl)-1-(pyridazin-3-yl)azetidine-3-carboxamide], the IC50 at NAMPT was found to be 0.639 nM; in assay [1] it was 134 nM.

With `CC(C)(C)CC(=O)N1CC(Oc2ccc(NC(=O)C3CN(c4ccnnc4)C3)cc2)C1` [Example 254, N-(4-{[1-(3,3-dimethylbutanoyl)azetidin-3-yl]oxy}phenyl)-1-(pyridazin-4-yl)azetidine-3-carboxamide], the concentration for half-maximal inhibition (IC50) on NAMPT is 11.2 nM; in assay [1], 33.9 nM.

As for `O=C(Nc1ccc(OC2CN(C(=O)C3CCCCC3)C2)cc1)C1CN(c2ccnnc2)C1` [Example 255, N-(4-{[1-(cyclohexylcarbonyl)azetidin-3-yl]oxy}phenyl)-1-(pyridazin-4-yl)azetidine-3-carboxamide], the results for the concentration for half-maximal inhibition (IC50) (on NAMPT; in assay [1]) were 37.8 nM and 47.3 nM, respectively.

In the case of `O=C(Nc1ccc(OC2CN(C(=O)CC3CCOCC3)C2)cc1)C1CN(c2ccnnc2)C1` [Example 256, 1-(pyridazin-4-yl)-N-(4-{[1-(tetrahydro-2H-pyran-4-ylacetyl)azetidin-3-yl]oxy}phenyl)azetidine-3-carboxamide], the IC50 at NAMPT is 38.4 nM; in assay [1], 91.1 nM.

For the compound `CC1CC1C(=O)N1CC(Oc2ccc(NC(=O)C3CN(c4ccnnc4)C3)cc2)C1` (centres unmarked) [Example 257, N-[4-({1-[(2-methylcyclopropyl)carbonyl]azetidin-3-yl}oxy)phenyl]-1-(pyridazin-4-yl)azetidine-3-carboxamide], the results for the IC50 (on NAMPT; in assay [1]) were 41.9 nM and 64.7 nM, respectively.

Turning to `O=C(Nc1ccc(OC2CN(C(=O)CC(F)(F)F)C2)cc1)C1CN(c2ccnnc2)C1` [Example 258, 1-(pyridazin-4-yl)-N-(4-{[1-(3,3,3-trifluoropropanoyl)azetidin-3-yl]oxy}phenyl)azetidine-3-carboxamide], the values for the IC50 (on NAMPT; in assay [1]) were 34.8 nM and 108 nM, respectively.

For the compound `O=C(Nc1ccc(OC2CN(C(=O)C3CCCC3)C2)cc1)C1CN(c2ccnnc2)C1` [Example 259, N-(4-{[1-(cyclopentylcarbonyl)azetidin-3-yl]oxy}phenyl)-1-(pyridazin-4-yl)azetidine-3-carboxamide], the half-maximal inhibitory concentration (IC50) at NAMPT was found to be 17.7 nM; in assay [1], 32.5 nM.

Regarding `CC(C)(C)CC(=O)N1CCC(Oc2ccc(NC(=O)C3CN(c4ccnnc4)C3)cc2)CC1` [Example 260, N-(4-{[1-(3,3-dimethylbutanoyl)piperidin-4-yl]oxy}phenyl)-1-(pyridazin-4-yl)azetidine-3-carboxamide], the 50% inhibitory concentration (IC50) at NAMPT turned out to be 19 nM; in assay [1], 75.4 nM.

Turning to `O=C(Nc1ccc(OC2CN(C(=O)C3CCC3)C2)cc1)C1CN(c2ccnnc2)C1` [Example 261, N-(4-{[1-(cyclobutylcarbonyl)azetidin-3-yl]oxy}phenyl)-1-(pyridazin-4-yl)azetidine-3-carboxamide], the figures for the IC50 (on NAMPT; in assay [1]) were 23.7 nM and 62.9 nM, respectively.

Turning to `O=C(Nc1ccc(OC2CN(C(=O)C3CCCO3)C2)cc1)C1CN(c2ccnnc2)C1` (centres unmarked) [Example 262, 1-(pyridazin-4-yl)-N-(4-{[1-(tetrahydrofuran-2-ylcarbonyl)azetidin-3-yl]oxy}phenyl)azetidine-3-carboxamide], the IC50 at NAMPT amounted to 34.3 nM; in assay [1] it was 130 nM.

Regarding `CC(C)CCC(=O)N1CC(Oc2ccc(NC(=O)C3CN(c4ccnnc4)C3)cc2)C1` [Example 263, N-(4-{[1-(4-methylpentanoyl)azetidin-3-yl]oxy}phenyl)-1-(pyridazin-4-yl)azetidine-3-carboxamide], the IC50 on NAMPT was found to be 20.2 nM; in assay [1] it was 31.3 nM.

As to `CC(C)C(=O)N1CC(Oc2ccc(NC(=O)C3CN(c4ccnnc4)C3)cc2)C1` [Example 264, N-(4-{[1-(2-methylpropanoyl)azetidin-3-yl]oxy}phenyl)-1-(pyridazin-4-yl)azetidine-3-carboxamide], the half-maximal inhibitory concentration (IC50) on NAMPT amounted to 13.4 nM; in assay [1] it was 52.8 nM.

Consider `CC[C@H](C)C(=O)N1CC(Oc2ccc(NC(=O)C3CN(c4ccnnc4)C3)cc2)C1` [Example 265, N-[4-({1-[(2S)-2-methylbutanoyl]azetidin-3-yl}oxy)phenyl]-1-(pyridazin-4-yl)azetidine-3-carboxamide], for which the concentration for half-maximal inhibition (IC50) at NAMPT came out at 21.8 nM; in assay [1], 29.5 nM.

Consider `CC(C)CC(=O)N1CCC(Oc2ccc(NC(=O)C3CN(c4ccnnc4)C3)cc2)CC1` [Example 266, N-(4-{[1-(3-methylbutanoyl)piperidin-4-yl]oxy}phenyl)-1-(pyridazin-4-yl)azetidine-3-carboxamide], for which the values for the half-inhibitory concentration (IC50) (at NAMPT; in assay [1]) were 53.2 nM and 120 nM, respectively.

Consider `COCC(=O)N1CCC(Oc2ccc(NC(=O)C3CN(c4ccnnc4)C3)cc2)CC1` [Example 267, N-(4-{[1-(methoxyacetyl)piperidin-4-yl]oxy}phenyl)-1-(pyridazin-4-yl)azetidine-3-carboxamide], for which the IC50 worked out at 56.5 nM at NAMPT and 274 nM in assay [1].

Consider `O=C(Nc1ccc(OC2CCN(C(=O)CC(F)(F)F)CC2)cc1)C1CN(c2ccnnc2)C1` [Example 268, 1-(pyridazin-4-yl)-N-(4-{[1-(3,3,3-trifluoropropanoyl)piperidin-4-yl]oxy}phenyl)azetidine-3-carboxamide], for which the 50% inhibitory concentration (IC50) came to 42.1 nM on NAMPT and 119 nM in assay [1].

As for `O=C(Nc1ccc(OC2CCN(C(=O)C(F)(F)c3ccccc3)CC2)cc1)C1CN(c2ccnnc2)C1` [Example 269, N-[4-({1-[difluoro(phenyl)acetyl]piperidin-4-yl}oxy)phenyl]-1-(pyridazin-4-yl)azetidine-3-carboxamide], the IC50 at NAMPT was 22.3 nM; in assay [1], 37.7 nM.

By IC50 is commonly meant the concentration needed to halve the response being measured.
